Measured values from patent US8889638B2, “Stimulus-triggered prodrugs” (The Regents of the University of California, priority 2010, dated 2014).
One block for each molecule: values may come before it.

Legend:
[1] = biological target: T1, MMP-9 (catalytic domain, human, recombinant) (Homo sapiens, UniProt P14780); assay: MMP-9 fluorescence-based inhibition assay with and without β-glucosidase; assay type: biochemical; settings: for inhibition of MMP-9 when exposed to β-glucosidase: 1 mM for 2, 4 mM for 4, 125 μM for 6; for inhibition of MMP-9 in the absence of β-glucosidase: 1 mM for 2, 4 mM for 4, 125 μM for 6, 16 μM for 8
T1 construct: MMP-9 (catalytic domain, human, recombinant); purchased BIOMOL International
T1 sequence (P14780 107-444 limits assumed): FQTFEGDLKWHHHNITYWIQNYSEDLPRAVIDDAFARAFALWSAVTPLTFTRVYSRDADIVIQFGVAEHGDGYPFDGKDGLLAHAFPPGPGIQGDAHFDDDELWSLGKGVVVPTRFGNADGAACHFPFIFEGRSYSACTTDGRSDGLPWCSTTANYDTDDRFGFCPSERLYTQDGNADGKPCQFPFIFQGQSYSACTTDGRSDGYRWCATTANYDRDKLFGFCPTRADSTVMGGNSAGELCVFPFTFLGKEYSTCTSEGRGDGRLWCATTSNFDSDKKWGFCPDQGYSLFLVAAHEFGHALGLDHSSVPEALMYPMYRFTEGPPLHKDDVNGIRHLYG
Protocol: MMP-9 (catalytic domain, human, recombinant), MMP-8 (catalytic domain, human, recombinant), and the assay kit were purchased from BIOMOL International. The assays were carried out according to the procedure provided with the kit. MMP activity was measured in 96-well plates using a Bio-Tek Flx 800 fluorescent plate reader. The ZBGs and their protected analogs were dissolved in DMSO and diluted in HEPES buffer (50 mM, pH 7.5) to a concentration of 10 mM for 1-2, 40 mM for 3-4, and 1.25 mM for 5-6. Each well contained 20 μL, of MMP-9 (0.45 U/mL), inhibitor (10 μL, of 1-6), 5 μL, of β-glucosidase (1 U/μL) when used, and buffer for a total volume of 99 μL. These were incubated for 1 h at 37° C. […] The reaction was initiated by the addition of 1 μL (400 μM) of the fluorescent substrate (Mca-Pro-Leu-Gly-Leu-Dpa-Ala-Arg-NH2 where Mca=(7-methoxycoumarin-4-yl)-acetyl and Dpa=N-3-(2,4-dinitrophenyl)-L-α-β-diaminopropionyl)) and kinetic activity was measured every minute for 30 min with excitation and emission wavelengths at 335 nm and 405 nm, respectively. Enzyme activity with inhibitor was calculated with respect to the control experiment (no inhibitor present). Measurements were performed in duplicate in two independent experiments.
For Cmpds 7 and 8, 1 mL sample in HEPES buffer at a concentration of 1 mM was incubated at 37° C. with 250 U of β-glucosidase (1 U/μL) for 4 h giving a final concentration of 0.8 mM of the inhibitor. After 4 h, a 200 μL aliquot was collected and filtered through a microcentrifuge filter. UV-Vis absorption spectroscopy was to verify that the concentration of 1,2-HOPO-2 was 0.71±0.2 mM in each of the samples using the extinction coefficient for 1,2-HOPO-2 (7) calculated at 346 nm (4,279.3±372 M-1 cm-1). Each well was made up with 20 μL of MMP-9 (0.45 U/mL), inhibitor (2 μL, for 7 and 8), and buffer for a total volume of 99 μL. These were incubated for 30 min at 37° C. For MMP-8 inhibition assays, each of the samples was diluted to 1 μM in HEPES buffer and 15 μL of each were added to 20 μL of MMP-8 (0.092 U/mL) and buffer for a total of 99 μL. The reaction was initiated by the addition of 1 μL (400 μM) of the fluorescent substrate and kinetic activity was measured every minute for 30 min with excitation and emission wavelengths at 335 nm and 405 nm, respectively. Enzyme activity with inhibitor was calculated with respect to the control experiment (no inhibitor present). A control sample was also performed, in which an aliquot of 250 U of β-glucosidase (1 U/μL) with 1 mL of HEPES buffer was incubated for 4 h at 37° C., filtered through a microcentrifuge filter, and evaluated in the MMP assay to confirm that no inhibition is observed with β-glucosidase. Measurements were performed in duplicate in two independent experiments. […]

[2] = Cleavage of boronic ester/acid protected compounds by H2O2 (UV-Vis, rate constant, HPLC); assay type: physicochemical; settings: for k, pseudo first-order rate constants calculated with an excess of H2O2: 50 μM in HEPES buffer pH 7.5, room temperature
Protocol: (§1) Absorption spectra of compounds B1-B16 were taken on a Perkin-Elmer Lambda 25 UV-visible spectrophotometer. To a 1.0 mL solution at 0.05 mM concentration in HEPES buffer (50 mM, pH 7.5) was added H2O2 (10 uL (0.09 M) in HEPES for compounds B1-B12 and B14-B16, 10 uL (0.9 M) in HEPES for compound B3, and 2.8 uL (0.09 M) in HEPES for compound B13). Spectra were monitored over time at room temperature. Absorption spectra of compounds B17-B21 were taken on a Perkin-Elmer Lambda 25 UV-visible spectrophotometer. To a 1.0 mL solution at 0.05 mM concentration of compounds 1-7 in HEPES buffer (50 mM, pH=7.5) was added H2O2 (10 uL, 0.09 M in HEPES) or KO2 (0.10 mM) with catalase (5 U). Hydrolytic stability was measured by monitoring samples of B19-B21 in HEPES buffer for a 24 h time period. Spectra were monitored over time at room temperature.
The pseudo-first order rate constant was calculated by monitoring the absorption spectra over time in the presence of excess hydrogen peroxide. To a 1.0 mL solution of compounds B1-B3 and B10-B14 in HEPES buffer (50 mM, pH 7.5) at 50 μM was added H2O2 to final concentrations of 150 μM, 250 μM, 500 μM, 750 μM, and 900 μM. Spectra were monitored over 15-30 min at room temperature with at least 50 spectra recorded. The change in absorption at 302 nm for B1-B3, 272 nm for B10, 312 nm for B11, 268 for B12, 306 nm for B13, and 303 nm for B14 were monitored. For compounds B1-B3 and B10-B11, the rate constant (kobs) was found from monitoring the appearance of the monitored absorption peak by plotting the linear slope of ln [(A∞−At)/(A∞)] vs. time (where A∞ is the absorbance of a 50 μM sample of the methyl salicylate for B1-B3, maltol for B10, and 1,2-HOPO for B11). For compounds B12-B14 the rate constant (kobs) was found from monitoring the disappearance of the monitored absorption peak by plotting the linear slope of ln [(A−AZBG)/(A0−AZBG)] vs. time (where AZBG is the absorbance of a 50 μM sample of the ZBG and A0 is the initial absorbance of […]).^3 The rate of conversion was determined from the slope of the line of kobs vs. [H2O2]. The pseudo-first order rate constant was calculated following literature procedure.^[15] To a 1.0 mL solution of compounds B19-B21 in HEPES buffer at 50 μM was added H2O2 to final concentrations of 150 μM, 250 μM, 500 μM, 750 μM, and 900 μM. Spectra were monitored over 15-30 min at room temperature with at least 50 spectra recorded. The change in absorption at 292 nm for B19 and 252 nm for B20 and B21 were monitored. The rate constant (kobs) was found from the linear slope of ln [(A−AZBG)/(A0−AZBG)] vs. time (where AZBG is the absorbance of a 50 μM sample of the ZBG and A0 is the initial absorbance of B19-B21). The rate of conversion was determined from the slope of the line of kobs vs. [H2O2].
Analytical HPLC was performed on a HP Series 1050 system equipped with a Vydac® C18 reverse phase column (218 TP, 250×4.6 mm, 5 μm). […] Starting with 95% A and 5% B, an […] gradient was run for 15 min to a final solvent mixture of 5% A and 95% B, which was held for 5 min before ramping back down to 95% A and 5% B in 2 min and holding for an additional 4 min. Compounds were prepared in HEPES buffer (50 mM, pH 7.5) at a concentration of 1 mM. Retention times of compounds were determined under identical HPLC conditions prior to and after reaction with H2O2. LC-MS(+) was performed on compounds B6, B15 and B16 to confirm cleavage of the boronic ester to the phenolic moiety.

[3] = Hydrolytic stability of boronic ester compounds in HEPES buffer; assay type: physicochemical; settings: for hydrolytic stability in buffer: 4 h period
Protocol: as §1

[4] = Hydrolytic stability of sulfonate esters in HEPES buffer; assay type: physicochemical
Protocol: Absorption spectra of compounds were taken on a Perkin-Elmer Lambda 25 UV-Visible Spectrophotometer. To a 1.0 mL solution at 0.05 mM concentration of each compound in HEPES buffer (50 mM, pH 7.5) was added H2O2 (10 μL, 0.09M in HEPES) and absorption spectra were monitored over time at room temperature. Hydrolytic stability was measured by monitoring each sample in HEPES buffer over a 24 hour time period.

inhibition of MMP-9 when exposed to β-glucosidase [1]: complete restoration of inhibition
inhibition of MMP-9 in the absence of β-glucosidase [1]: attenuated inhibition
SMILES: O=c1ccccn1OC1OC(CO)C(O)C(O)C1O [Compound 2, 1-Hydroxypyridin-2(1H)-one-β-D-glucopyranoside]

inhibition of MMP-9 when exposed to β-glucosidase [1]: complete restoration of inhibition
inhibition of MMP-9 in the absence of β-glucosidase [1]: attenuated inhibition
SMILES: Cc1occc(=O)c1OC1OC(CO)C(O)C(O)C1O [Compound 4, 2-Methyl-4H-pyran-4-one-3-β-D-glucopyranoside]

inhibition of MMP-9 when exposed to β-glucosidase [1]: complete restoration of inhibition
inhibition of MMP-9 in the absence of β-glucosidase [1]: attenuated inhibition
SMILES: Cc1occc(=S)c1OC1OC(CO)C(O)C(O)C1O [Compound 6, 2-Methyl-4H-pyran-4-thione-3-β-D-glucopyranoside]

hydrolytic stability in buffer [3]: stable
SMILES: COC(=O)c1ccccc1OCc1ccc(B2OC(C)(C)C(C)(C)O2)cc1 [Compound B1, Methyl 2-((4-(4,4,5,5-tetramethyl-1,3,2-dioxaborolan-2-yl)benzyl)oxy)benzoate]
k, pseudo first-order rate constants calculated with an excess of H2O2 [2]: 1.12 ± 0.04 M⁻¹ s⁻¹

hydrolytic stability in buffer [3]: spontaneous hydrolytic cleavage
SMILES: COC(=O)c1ccccc1OC(=O)OCc1ccc(B2OC(C)(C)C(C)(C)O2)cc1 [Compound B2, Methyl 2-((((4-(4,4,5,5-tetramethyl-1,3,2-dioxaborolan-2-yl)benzyl)oxy)carbonyl)oxy)benzoate]
k, pseudo first-order rate constants calculated with an excess of H2O2 [2]: 2.7 ± 0.1 M⁻¹ s⁻¹

SMILES: COC(=O)c1ccccc1B1OC(C)(C)C(C)(C)O1 [Compound B3, Methyl 2-(4,4,5,5-tetramethyl-1,3,2-dioxaborolan-2-yl)benzoate]
k, pseudo first-order rate constants calculated with an excess of H2O2 [2]: 0.031 ± 0.002 M⁻¹ s⁻¹
hydrolytic stability in buffer [3]: comparable to the ether linkage used in B1

SMILES: Cc1c(OCc2ccc(B3OC(C)(C)C(C)(C)O3)cc2)c(=O)ccn1C [Compound B12, 1,2-Dimethyl-3-((4-(4,4,5,5-tetramethyl-1,3,2-dioxaborolan-2-yl)benzyl)oxy)pyridin-4(1H)-one]
k, pseudo first-order rate constants calculated with an excess of H2O2 [2]: 3.5 ± 0.3 M⁻¹ s⁻¹

SMILES: CC1(C)OB(c2ccc(COc3cccccc3=O)cc2)OC1(C)C [Compound B13, 2-((4-(4,4,5,5-Tetramethyl-1,3,2-dioxaborolan-2-yl)benzyl)oxy)cyclohepta-2,4,6-trienone]
k, pseudo first-order rate constants calculated with an excess of H2O2 [2]: 2.9 ± 0.1 M⁻¹ s⁻¹

SMILES: CC1(C)OB(c2ccc(COc3cccc4cccnc34)cc2)OC1(C)C [Compound B14, 8-((4-(4,4,5,5-Tetramethyl-1,3,2-dioxaborolan-2-yl)benzyl)oxy)quinoline]
k, pseudo first-order rate constants calculated with an excess of H2O2 [2]: 4.1 ± 0.2 M⁻¹ s⁻¹

hydrolysis in buffer ([3]; 24 h time period): > 50%
SMILES: Cc1occc(=O)c1OC(=O)OCc1ccc(B2OC(C)C(C)(C)O2)cc1 (stereo not drawn) [Compound B21, 2-methyl-4-oxo-4H-pyran-3-yl 4-(4,4,5-trimethyl-1,3,2-dioxaborolan-2-yl)benzyl carbonate]
rate constant of conversion with an excess of H2O2 ([2]; pseudo-first order conditions, HEPES buffer): 6.7 M⁻¹ s⁻¹

SMILES: O=c1ccccn1OS(=O)(=O)c1ccc([N+](=O)[O-])cc1[N+](=O)[O-] [PZBG-1d, 2-Oxopyridin-1(2H)-yl 2,4-dinitrobenzenesulfonate]
stability in aqueous buffer in the absence of H2O2 [4]: rapid hydrolytic cleavage
